Results taken from US20190054103A1, “METHOD OF TREATMENT OF TP53 WILD-TYPE TUMORS WITH 2',2'-DIFLUORO-5-AZA-2'-DEOXYCYTIDINE OR PRODRUGS THEREOF” (priority 2016, published 2019).

Legend:
Test in all cases: NCI 60 Cell Line Panel growth inhibition
Assay type in all cases: cell-based, human
[1] = system: HOP-92; details: HOP-92, Lung-NSCL, TP53 null/mutant
Excerpt: (§1) The NCI-60 Cell Line Panel was assembled by the National Cancer Institute as an in vitro anticancer drug screen. The panel comprises human cancer cell lines representing nine different tissues of origin: breast, colon, central nervous system, renal, lung, melanoma, ovarian, prostate, and hematogenous. […] See, e.g., Leroy et al. “Analysis of TP53 Mutation Status in Human Cancer Cell Lines: a Reassesment” Hum Mutat 2014 35(6): 756-765.

[2] = system: RXF 393; details: RXF 393, Renal cancer, TP53 null/mutant
Excerpt: as §1

[3] = system: OVCAR-5; details: OVCAR-5, Ovarian cancer, TP53 wild type
Excerpt: as §1

[4] = system: 786-0; details: 786-0, Renal cancer, TP53 null/mutant
Excerpt: as §1

[5] = system: BT-549; details: BT-549, Breast cancer, TP53 null/mutant
Excerpt: as §1

[6] = system: TK-10; details: TK-10, Renal cancer, TP53 null/mutant
Excerpt: as §1

[7] = system: HCT-116; details: HCT-116, Colon cancer, TP53 wild type
Excerpt: as §1

[8] = system: HCT-15; details: HCT-15, Colon cancer, TP53 null/mutant
Excerpt: as §1

[9] = system: SF-539; details: SF-539, CNS cancer, TP53 null/mutant
Excerpt: as §1

[10] = system: SNB-19; details: SNB-19, CNS cancer, TP53 null/mutant
Excerpt: as §1

[11] = system: MALME-3M; details: Melanoma, TP53 wild type
Excerpt: as §1

[12] = system: MDA-MB-231; details: MDA-MB-231, Breast cancer, TP53 null/mutant
Excerpt: as §1

[13] = system: NCI-H460; details: NCI-H460, Lung-NSCL, TP53 wild type
Excerpt: as §1

[14] = system: PC-3; details: PC-3, Prostate cancer, TP53 null/mutant
Excerpt: as §1

[15] = system: KM12; details: KM12, Colon cancer, TP53 null/mutant
Excerpt: as §1

[16] = system: SR; details: Leukemia, TP53 wild type
Excerpt: as §1

[17] = system: SN12C; details: Renal cancer, TP53 null/mutant
Excerpt: as §1

[18] = system: UACC-62; details: UACC-62, Melanoma, TP53 wild type
Excerpt: as §1

[19] = system: K-562; details: K-562, Leukemia, TP53 null/mutant
Excerpt: as §1

[20] = system: EKVX; details: Lung-NSCL, TP53 null/mutant
Excerpt: as §1

[21] = system: SNB-75; details: SNB-75, CNS cancer, TP53 null/mutant
Excerpt: as §1

[22] = system: NCI/ADR-RES; details: Ovarian cancer, TP53 null/mutant
Excerpt: as §1

[23] = system: HL-60; details: HL-60, Leukemia, TP53 null/mutant
Excerpt: as §1

[24] = system: UO-31; details: UO-31, Renal cancer, TP53 wild type
Excerpt: as §1

[25] = system: SK-MEL-5; details: SK-MEL-5, Melanoma, TP53 wild type
Excerpt: as §1

[26] = system: IGROV-1; details: IGROV-1, Ovarian cancer, TP53 null/mutant
Excerpt: as §1

[27] = system: A498; details: A498, Renal cancer, TP53 wild type
Excerpt: as §1

[28] = system: HT29; details: HT29, Colon cancer, TP53 null/mutant
Excerpt: as §1

[29] = system: MOLT-4; details: MOLT-4, Leukemia, TP53 null/mutant
Excerpt: as §1

[30] = system: SF-268; details: SF-268, CNS cancer, TP53 null/mutant
Excerpt: as §1

[31] = system: HCC-2998; details: HCC-2998, Colon cancer, TP53 null/mutant
Excerpt: as §1

[32] = system: OVCAR-8; details: OVCAR-8, Ovarian cancer, TP53 null/mutant
Excerpt: as §1

[33] = system: MDA-MB-435; details: MDA-MB-435, Melanoma, TP53 null/mutant
Excerpt: as §1

[34] = system: NCI-H226; details: NCI-H226, Lung-NSCL, TP53 null/mutant
Excerpt: as §1

[35] = system: UACC-257; details: UACC-257, Melanoma, TP53 wild type
Excerpt: as §1

[36] = system: SF-295; details: SF-295, CNS cancer, TP53 null/mutant
Excerpt: as §1

[37] = system: OVCAR-3; details: OVCAR-3, Ovarian cancer, TP53 null/mutant
Excerpt: as §1

## Nc1ncn([C@@H]2O[C@H](CO)[C@@H](O)C2(F)F)c(=O)n1 [NUC013, 4-amino-1-((2R,4R,5R)-3,3-difluoro-4-hydroxy-5-(hydroxymethyl)tetrahydrofuran-2-yl)-1,3,5-triazin-2(1H)-one]
[1]
  Growth (%) at 10 μM: 34.34%
[2]
  Growth (%) at 10 μM: 44.97%
[3]
  Growth (%) at 10 μM: 86.95%
[4]
  Growth (%) at 10 μM: 26.29%
[5]
  Growth (%) at 10 μM: 53.63%
[6]
  Growth (%) at 10 μM: 91.13%
[7]
  Growth (%) at 10 μM: 29.84%
[8]
  Growth (%) at 10 μM: 52.19%
[9]
  Growth (%) at 10 μM: 22.25%
[10]
  Growth (%) at 10 μM: 58.88%
[11]
  Growth (%) at 10 μM: 67.90%
[12]
  Growth (%) at 10 μM: 79.98%
[13]
  Growth (%) at 10 μM: 9.34%
[14]
  Growth (%) at 10 μM: 63.57%
[15]
  Growth (%) at 10 μM: 61.18%
[16]
  Growth (%) at 10 μM: 14.99%
[17]
  Growth (%) at 10 μM: 51.65%
[18]
  Growth (%) at 10 μM: 47.29%
[19]
  Growth (%) at 10 μM: 65.66%
[20]
  Growth (%) at 10 μM: 86.06%
[21]
  Growth (%) at 10 μM: 64.95%
[22]
  Growth (%) at 10 μM: 42.13%
[23]
  Growth (%) at 10 μM: 25.23%
[24]
  Growth (%) at 10 μM: 39.00%
[25]
  Growth (%) at 10 μM: 70.84%
[26]
  Growth (%) at 10 μM: 56.77%
[27]
  Growth (%) at 10 μM: 38.04%
[28]
  Growth (%) at 10 μM: 70.09%
[29]
  Growth (%) at 10 μM: 35.63%
[30]
  Growth (%) at 10 μM: 65.39%
[31]
  Growth (%) at 10 μM: 60.44%
[32]
  Growth (%) at 10 μM: 49.95%
[33]
  Growth (%) at 10 μM: 53.04%
[34]
  Growth (%) at 10 μM: 52.34%
[35]
  Growth (%) at 10 μM: 77.54%
[36]
  Growth (%) at 10 μM: 77.93%
[37]
  Growth (%) at 10 μM: 70.56%
